From US10202604B2, “Methods of using microRNA-141” (Stemirna Therapeutics Co., Ltd., priority 2016, dated 2019)
Values joined by “and” are separate entries in the source; they are usually repeats but may differ in a detail not shown here. Equal entries are not always repeated.

What was measured:
CD44 = CD44 levels in endpoint tumors; format: in vivo; conditions: tumors from miR-141 overexpressing cells vs control tumors
EZH2 = EZH2 mRNA and protein levels; format: cell-based, human
Method: (§1) FIG. 6A: Putative binding site of miR-141 in EZH2 3′-UTR. […] FIG. 6C is a qPCR analysis of EZH2 mRNA levels in CD44^+ PCa cells. Bars, mean±SD. *P<0.05; **P<0.01. […] Bars, mean±SD. **P<0.01. […] Western blotting was performed in PC3 and Du145 cells transfected with NC (60 nM) or miR-141 (30 or 60 nM) oligos (72 h). Relative protein levels were measured by densitometry and normalized to GAPDH levels (indicated below). […] Du145 cells plated one day before were treated with 1, 2, and 5 μM of DZNep for 96 h and then cells were harvested for invasion assays. **P<0.01. Inset, WB showing reduced EZH2 proteins by DZNep. […] Du145 cells were transfected with 10 nM scramble siRNA (siCon) or EZH2-targeting siRNAs (siEZH2) or siEZH2 plus anti-miR-141 (30 nM). 48 h later, cells were harvested for invasion assays. Bars, mean±SD. **P<0.01. […] Du145 cells were co-transfected with 30 nM NC or miR-141 oligos together with empty vector or pCMV-EZH2 construct. After 48 h, cells were harvested for invasion assay. Bars, mean±SD. **P<0.01.
Total RNA was extracted using microRNA isolation kit (Life Technologies) according to the manufacturer's instructions. microRNA qPCRs were performed using TaqMan microRNA assays (Life Technologies). qPCR data for microRNAs were normalized to RNU48 whereas qPCR data for mRNAs were normalized to GAPDH.
For Boyden Chamber invasion assays, Biocoat Matrigel Invasion Chamber (BD, Franklin Lakes, N.J.) was employed following the manufacturer's instructions. Briefly, 100,000-200,000 of prostate cancer cells after transfection with […]/miR-141 oligos or infection with miR-141 over-expressing lentivirus were seeded into each well. Medium with 20% fetal bovine serum was used in the lower chamber as chemo-attractant. After 20 h, cells were fixed and stained using HEMA stain. Representative images were taken for each membrane and cells were counted. Migration assays were simultaneously performed in control wells using identical protocol with Transwell (Costar; 8 μl PET) without Matrigel. […]

prostate cancer tumors = experiment: Ki-67+ cells in miR-141-overexpressing tumors; format: in vivo
[1] = system: cultured as well as primary patient human prostate cancer cells; experiment: Matrigel invasion assay; format: cell-based
Method: For Boyden Chamber invasion assays, Biocoat Matrigel Invasion Chamber (BD, Franklin Lakes, N.J.) was employed following the manufacturer's instructions. Briefly, 100,000-200,000 of prostate cancer cells after transfection with […]/miR-141 oligos or infection with miR-141 over-expressing lentivirus were seeded into each well. Medium with 20% fetal bovine serum was used in the lower chamber as chemo-attractant. After 20 h, cells were fixed and stained using HEMA stain. Representative images were taken for each membrane and cells were counted. Migration assays were simultaneously performed in control wells using identical protocol with Transwell (Costar; […]) without Matrigel. In some experiments, Du145 cells were plated one day before and treated with 1, 2, and 5 μM of DZNep (3-Deazaneplanocin A) for 96 h after which cells were harvested and used in invasion assays and Western blot.

LAPC9 cells = experiment: Whole-genome RNA-Seq; format: cell-based, human
Method: (§2) Du145 and LAPC9 cells were transfected with 30 nM of miR-141 or negative control oligos for 48 h. Total RNA was purified using RNeasy mini kit (Qiagen, Hilden, Germany). The overexpression of miR-141 was validated by qPCR. 100 ng of total RNA samples was then converted to cDNA using a NuGEN Ovation RNA-Seq System v2 according to the manufacturer's protocol (NuGEN, San Carlos, Calif.). NuGEN-amplified double-stranded cDNAs were fragmented into ˜180 base pair (bp) using a Covaris system (Covaris, Woburn, Mass.). Fragmented cDNAs were run on a SPRI-TE library construction system (Beckman Coulter, Fullerton, Calif.), and during the adaptor ligation step, uniquely indexed NEXTflex adapters (Bioo Scientific, Austin, Tex.) were used for each of the samples to allow for multiplexing. Adapter-ligated libraries were enriched by PCR using a KAPA library amplification kit (KAPA Biosystems, Wilmington, Mass.) (1 cycle at 98° C. for 45 seconds; 7 cycles at 98° C. for 15 seconds, 65° C. for 30 seconds, and 72° C. for 30 seconds; 1 cycle at 72° C. for 1 minute), and purified with AMPureXP beads (Beckman Coulter, Pasadena, Calif.). The purified libraries were quantified using a KAPA library quantification kit. The libraries were loaded on cBot (Illumina, San Diego, Calif.) at final concentration of […] to perform cluster generation, followed by 2×76 bp sequencing on HiSeq 2000 (Illumina, San Diego, Calif.).
(§3) Sequencing reads were mapped to reference human genome sequence ([…] [hg19] assembly by TopHat (Version 2.0.6). The number of fragments in each known gene from RefSeq database (downloaded from UCSC Genome Browser on Mar. 9, 2012) was enumerated using htseq-count from HTSeq package (version 0.5.4p9). Genes with less than 10 fragments in all the samples were removed before differential expression analysis. The differential expression between conditions was statistically assessed by R/Bioconductor package edgeR (version 3.0.8). Genes with FDR (false discovery rate) of ≤0.05 and >200 bp were called as differentially expressed.
(§4) For Gene Ontology (GO) analysis, IPA (Ingenuity Pathway Analysis; Qiagen, Valencia, Calif.) and GSEA (Gene Set Enrichment Analysis; Broad Institute) were performed. The standard procedure was followed (www.broadinstitute.org/gsea/doc/GSEAUserGuideFrame.html) as described by GSEA user guide and used curated gene set C2 of the Molecular Signature Database (MSigDB) version 4.0 to compute overlaps between gene set and gene sets in MSigDB. Some of the datasets presented in the text are annotated here.
(§5) The authors' in-house scripts (12) was utilized for sequence alignment and peak calling. The miR-200a CLIP-Seq results containing the binding information were further extracted and merged with Du145 or LAPC9 RNA-Seq data by gene symbol.

Du145 cells = experiment: Whole-genome RNA-Seq; format: cell-based, human
Method: as §2, §3, §4, §5

SUZ12 = SUZ12 protein level, Western blotting; format: cell-based, human; conditions: PC3 and Du145, 30 or 60 nM, 72 h
Method: as §1

[2] = merged with miR-200a CLIP-Seq data

miR-141: miR-141 mirVana mimics (Life Technologies); microRNA-141 oligonucleotide may have SEQ ID NO: 1; in some experiments over-expressed by lentiviral vectors (UAACACUGUCUGGUAAAGAUGG; listed as RNA, further chemistry not given here) [miR-141 mirVana mimics (Life Technologies); in some experiments over-expressed by lentiviral vectors]
CD44 mRNA level in endpoint tumors (CD44): lower levels | CD44 protein level in endpoint tumors (CD44): lower levels | EZH2 RNA level (EZH2; miR-141 overexpression in prostate cancer cells): significantly reduced | EZH2 protein level (EZH2; miR-141 overexpression, PC3 and Du145, 30 or 60 nM, 72 h): significantly reduced | Ki-67+ cells (prostate cancer tumors): reduced | invasive capabilities [1]: significantly inhibited | TGFB2, ZEB1, MAP2K4, VIM, NYH10, FN1 and many other mesenchymal genes (LAPC9 cells): downregulated | epithelial markers including E-Cadherin, Claudin members and KRTs (LAPC9 cells): prominently upregulated | down-regulated genes (LAPC9 cells; FDR<0.05): 459 | up-regulated genes (LAPC9 cells; FDR<0.05): 265 | putative direct targets of miR-141 (genes) (LAPC9 cells; RNA-Seq merged with miR-200a CLIP-Seq data): 157 and ~150 | TGFB2, ZEB1, MAP2K4, and VIM expression (Du145 cells): downregulated | ZEB2, TWIST2, and SANI2 expression (Du145 cells): inconsistent changes | epithelial markers including E-Cadherin, Claudin family members and cytokeratins (KRT) (Du145 cells): strongly induced | down-regulated genes (Du145 cells; FDR<0.05): 949 | up-regulated genes (Du145 cells; FDR<0.05): 1,304 | transcripts having binding sites to miR-200a/miR-141 (Du145 cells; RNA-Seq DEGs merged with miR-200a CLIP-Seq data): 532 | down-regulated transcripts having binding sites to miR-200a/miR-141 (Du145 cells; [2]): 263 | upregulated transcripts having binding sites to miR-200a/miR-141 (Du145 cells; [2]): 269 | SUZ12 protein level (SUZ12): reduced
